From the NIST ThermoML archive (doi:10.1021/je901079k)

Assay: xn = mol fraction of the nth substance listed
Details: Maximal bubble pressure

F.[F-].[Na+] [sodium hydrogen fluoride] + [F][Al]([F])[F]
Details	surface tension liquid-gas [mN/m]
1130.2 K, x1 = 0.6	92.04
1159.2 K, x1 = 0.6	89.61
1184.2 K, x1 = 0.6	87.51
1215.2 K, x1 = 0.6	84.94
1239.7 K, x1 = 0.6	82.84
1274.2 K, x1 = 0.6667	105.93
1297.2 K, x1 = 0.6667	104.59
1297.2 K, x1 = 0.7143	121.35
1299.2 K, x1 = 0.75	132.71
1318.2 K, x1 = 0.7143	118.25
1318.2 K, x1 = 0.75	130.09
1319.2 K, x1 = 0.6667	103.14
1329.2 K, x1 = 0.7143	116.62
1339.2 K, x1 = 0.75	127.18
1340.2 K, x1 = 0.6667	101.57
1348.2 K, x1 = 0.7143	113.82
1368.2 K, x1 = 0.7143	110.87
1370.2 K, x1 = 0.75	122.89
